{"source": "patent US20090317455A1", "about": "“REVERSE TARGETING LIPID VESICLE” (ASTELLAS PHARMA INC., priority 2006, published 2009)", "settings": "10 mg/kg adriamycin, intravenous (tail vein) on Days 8, 10 and 12; compared with Vehicle; FIG. 1(A)", "procedure": "The presence of weight loss as a side effect of adriamycin encapsulated in the liposome was assessed. […] Each of the drugs was intravenously (tail vein) administered to each mouse group on Days 8, 10 and 12 following the sensitization day (Day 0) (total of three doses). […] The 10 mg/kg (weight) adriamycin is a dose that gives medicinal benefits as a cancer chemotherapeutic agent.\nMeanwhile, weight loss as a side effect was also assessed.\nEach of the drugs was intravenously (tail vein) administered to each mouse group on Days 8, 10 and 12 following the sensitization day (Day 0) (total of three doses)."}
{"smiles": "COc1cccc2c1C(=O)c1c(O)c3c(c(O)c1C2=O)C[C@@](O)(C(=O)CO)C[C@@H]3O[C@H]1C[C@H](N)[C@H](O)[C@H](C)O1", "note": "[adriamycin]", "values": [{"measurement": "weight loss as a side effect", "value": "obvious weight loss"}]}
